From patent US20140073634A1 (Institute For Applied Cancer Science/The University of …, priority 2012, published 2014)

Test system: 293T-HRE-GFP-luc cells
Experiment: Cell-based reporter assay for IC50 determinations (HRE-luciferase, hypoxia)
Settings: 6 h, 6 hrs hypoxia (1% O2), luminescence
In short: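 293T-HRE-GFP-luc cells were pre-incubated with serially diluted compounds for 30 min under normoxia, then held 6 hrs in hypoxia (1% O2, 37° C). HRE-driven luciferase read by Steadylite Plus luminescence; IC50 from four-parameter logistic fit.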

Q: `COCCOc1cccc(Cn2cc(-c3noc(-c4cnc(N5CCCCC5)nc4)n3)ccc2=O)c1` [Example 88, 1-(3-(2-Methoxyethoxy)benzyl)-5-(5-(2-(piperidin-1-yl)pyrimidin-5-yl)-1,2,4-oxadiazol-3-yl)pyridin-2(1H)-one] was tested. Which IC50 did it give?
A: < 100 nM

Q: For `Cc1cnc(-c2nc(-c3ccc(C(C)(C)C)cc3)no2)nc1Cc1cccc(N2CCN(C)CC2)c1` [Example 89, 3-(4-(Tert-butyl)phenyl)-5-(5-methyl-4-(3-(4-methylpiperazin-1-yl)benzyl)pyrimidin-2-yl)-1,2,4-oxadiazole], which IC50 is on record?
A: < 100 nM

Q: With `Cc1ncc(-c2nc(-c3ccc(OC(F)(F)F)cc3)no2)nc1Cc1cccc(N2CCN(C)CC2)c1` [Example 90, 5-(5-Methyl-6-(3-(4-methylpiperazin-1-yl)benzyl)pyrazin-2-yl)-3-(4-(trifluoromethoxy)phenyl)-1,2,4-oxadiazole] as the molecule, how does the IC50 read?
A: < 100 nM

Q: With `CN1CCN(c2cc(Cn3cc(-c4ncc(-c5ccc(OC(F)(F)F)cc5)o4)ccc3=O)ccn2)CC1` [Example 92, 1-((2-(4-Methylpiperazin-1-yl)pyridin-4-yl)methyl)-5-(5-(4-(trifluoromethoxy)phenyl)oxazol-2-yl)pyridin-2(1H)-one] as the molecule, how does the IC50 read?
A: 100 to 1000 nM

Q: Which IC50 does the source give for `COCCOc1cccc(Cn2cc(-c3nc(-c4ccc(OC(F)(F)F)cc4)co3)ccc2=O)c1` [Example 94, 1-(3-(2-Methoxyethoxy)benzyl)-5-(4-(4-(trifluoromethoxy)phenyl)oxazol-2-yl)pyridin-2(1H)-one] here?
A: < 100 nM

Q: `CS(=O)(=O)CCCOc1cccc(Cn2cc(-c3nc(-c4ccc(OC(F)(F)F)cc4)co3)ccc2=O)c1` [Example 95, 1-(3-(3-(Methylsulfonyl)propoxy)benzyl)-5-(4-(4-(trifluoromethoxy)phenyl)oxazol-2-yl)pyridin-2(1H)-one] was tested. Which IC50 did it give?
A: < 100 nM

Q: For `CN1CCN(c2cccc(Cn3cc(-c4cc(-c5ccc(OC(F)(F)F)cc5)on4)ccc3=O)c2)CC1` [Example 96a, 1-(3-(4-Methylpiperazin-1-yl)benzyl)-5-(5-(4-(trifluoromethoxy)phenyl)isoxazol-3-yl)pyridin-2(1H)-one], which IC50 is on record?
A: < 100 nM

Q: With `CN1CCN(c2cccc(Cn3cc(-c4cc(-c5ccc(OC(F)(F)F)cc5)no4)ccc3=O)c2)CC1` [Example 96b, 1-(3-(4-methylpiperazin-1-yl)benzyl)-5-(3-(4-(trifluoromethoxy)phenyl)isoxazol-5-yl)pyridin-2(1H)-on] as the molecule, how does the IC50 read?
A: < 100 nM

Q: How did the IC50 turn out when `CN1CCN(c2cc(Cn3cc(-c4cc(-c5ccc(OC(F)(F)F)cc5)on4)ccc3=O)ccn2)CC1` [Example 97a, 1-((2-(4-Methylpiperazin-1-yl)pyridin-4-yl)methyl)-5-(5-(4-(trifluoromethoxy)phenyl)isoxazol-3-yl)pyridin-2(1H)-one] was run?
A: < 100 nM

Q: How did the IC50 turn out when `CN1CCN(c2cc(Cn3cc(-c4cc(-c5ccc(OC(F)(F)F)cc5)no4)ccc3=O)ccn2)CC1` [Example 97b, 1-((2-(4-methylpiperazin-1-yl)pyridin-4-yl)methyl)-5-(3-(4-(trifluoromethoxy)phenyl)isoxazol-5-yl)pyridin-2(1H)-one] was run?
A: < 100 nM

Q: For `CS(=O)(=O)C1CCN(c2cccc(Cn3cc(-c4cc(-c5ccc(OC(F)(F)F)cc5)no4)ccc3=O)c2)CC1` [Example 98, 1-(3-(4-(Methylsulfonyl)piperidin-1-yl)benzyl)-5-(3-(4-(trifluoromethoxy)phenyl)isoxazol-5-yl)pyridin-2(1H)-one], which IC50 is on record?
A: < 100 nM

Q: With `CS(=O)(=O)C1CCN(c2cccc(Cn3cc(-c4cc(-c5ccc(OC(F)(F)F)cc5)on4)ccc3=O)c2)CC1` [Example 99, 1-(3-(4-(Methylsulfonyl)piperidin-1-yl)benzyl)-5-(5-(4-(trifluoromethoxy)phenyl)isoxazol-3-yl)pyridin-2(1H)-one] as the molecule, how does the IC50 read?
A: < 100 nM

Q: `CN1CCN(c2cccc(Cn3cc(-c4nnc(-c5ccc(OC(F)(F)F)cc5)o4)ccc3=O)c2)CC1` [Example 100, 1-Methyl-4-(3-((2-oxo-5-(5-(4-(trifluoromethoxy)phenyl)-1,3,4-oxadiazol-2-yl)pyridin-1(2H)-yl)methyl)phenyl)piperazin-1-ium 2,2,2-trifluoroacetate] was tested. Which IC50 did it give?
A: < 100 nM

Q: `CN1CCN(c2cc(Cn3cc(-c4nnc(-c5ccc(OC(F)(F)F)cc5)o4)ccc3=O)ccn2)CC1` [Example 101, 1-Methyl-4-(4-((2-oxo-5-(5-(4-(trifluoromethoxy)phenyl)-1,3,4-oxadiazol-2-yl)pyridin-1(2H)-yl)methyl)pyridin-2-yl)piperazin-1-ium 2,2,2-trifluoroacetate] was tested. Which IC50 did it give?
A: 100 to 1000 nM

Q: Which IC50 does the source give for `COCCOc1cccc(Cn2cc(-c3nnc(-c4ccc(OC(F)(F)F)cc4)o3)ccc2=O)c1` [Example 102] here?
A: < 100 nM

Q: `CC(C)(O)c1cccc(Cn2cc(-c3nnc(-c4ccc(OC(F)(F)F)cc4)o3)ccc2=O)c1` [Example 103] was tested. Which IC50 did it give?
A: < 100 nM

Q: `CS(=O)(=O)CCCOc1cccc(Cn2cc(-c3nnc(-c4ccc(OC(F)(F)F)cc4)o3)ccc2=O)c1` [Example 104] was tested. Which IC50 did it give?
A: < 100 nM

Q: Which IC50 does the source give for `CS(=O)(=O)C1CCN(c2cccc(Cn3cc(-c4nnc(-c5ccc(OC(F)F)cc5)o4)ccc3=O)c2)CC1` [Example 105, 5-(5-(4-(Difluoromethoxy)phenyl)-1,3,4-oxadiazol-2-yl)-1-(3-(4-(methylsulfonyl)piperidin-1-yl)benzyl)pyridin-2(1H)-one] here?
A: < 100 nM

Q: With `CC(C)Oc1ccc(-c2nnc(-c3ccc(=O)n(Cc4cccc(N5CCC(S(C)(=O)=O)CC5)c4)n3)o2)cc1` [Example 106, 6-(5-(4-Isopropoxyphenyl)-1,3,4-oxadiazol-2-yl)-2-(3-(4-(methylsulfonyl)piperidin-1-yl)benzyl)pyridazin-3(2H)-one] as the molecule, how does the IC50 read?
A: < 100 nM

Q: With `COC(=O)c1cccc(Cn2cc(-c3nc(-c4ccc(OC(F)(F)F)cc4)no3)ccc2=O)c1` [Example 107, methyl 3-((2-oxo-5-(3-(4-(trifluoromethoxy)phenyl)-1,2,4-oxadiazol-5-yl)pyridin-1(2H)-yl)methyl)benzoate] as the molecule, how does the IC50 read?
A: 100 to 1000 nM

Q: How did the IC50 turn out when `O=c1ccc(-c2nc(-c3ccc(OC(F)(F)F)cc3)no2)nn1Cc1ccc(F)c(Br)c1` [Example 108, 2-(3-bromo-4-fluorobenzyl)-6-(3-(4-(trifluoromethoxy)phenyl)-1,2,4-oxadiazol-5-yl)pyridazin-3(2H)-one] was run?
A: 100 to 1000 nM

Q: Which IC50 does the source give for `COC(=O)c1cccc(Cn2nc(-c3nc(-c4ccc(OC(F)(F)F)cc4)no3)ccc2=O)c1` [Example 109, methyl 3-((6-oxo-3-(3-(4-(trifluoromethoxy)phenyl)-1,2,4-oxadiazol-5-yl)pyridazin-1(6H)-yl)methyl)benzoate] here?
A: 100 to 1000 nM

Q: How did the IC50 turn out when `O=C(c1cccc(Cn2nc(-c3nc(-c4ccc(OC(F)(F)F)cc4)no3)ccc2=O)c1)N1CCOCC1` [Example 110, 2-(3-(morpholine-4-carbonyl)benzyl)-6-(3-(4-(trifluoromethoxy)phenyl)-1,2,4-oxadiazol-5-yl)pyridazin-3(2H)-one] was run?
A: 100 to 1000 nM

Q: `O=c1ccc(-c2nc(-c3ccc(OC(F)(F)F)cc3)no2)nn1Cc1ccc(F)c(N2CCOCC2)c1` [Example 111, 2-(4-fluoro-3-morpholinobenzyl)-6-(3-(4-(trifluoromethoxy)phenyl)-1,2,4-oxadiazol-5-yl)pyridazin-3(2H)-one] was tested. Which IC50 did it give?
A: < 100 nM

Q: For `CN1CCN(C(=O)c2cccc(Cn3nc(-c4nc(-c5ccc(OC(F)(F)F)cc5)no4)ccc3=O)c2)CC1` [Example 112, 2-(3-(4-methylpiperazine-1-carbonyl)benzyl)-6-(3-(4-(trifluoromethoxy)phenyl)-1,2,4-oxadiazol-5-yl)pyridazin-3(2H)-one], which IC50 is on record?
A: 100 to 1000 nM

Q: Which IC50 does the source give for `CN1CCN(c2cc(Cn3nc(-c4nc(-c5ccc(OC(F)(F)F)cc5)no4)ccc3=O)ccc2F)CC1` [Example 113, 2-(4-fluoro-3-(4-methylpiperazin-1-yl)benzyl)-6-(3-(4-(trifluoromethoxy)phenyl)-1,2,4-oxadiazol-5-yl)pyridazin-3(2H)-one] here?
A: < 100 nM

Q: Which IC50 does the source give for `O=C(c1cccc(Cn2cc(-c3nc(-c4ccc(OC(F)(F)F)cc4)no3)ccc2=O)c1)N1CCOCC1` [Example 114, 1-(3-(morpholine-4-carbonyl)benzyl)-5-(3-(4-(trifluoromethoxy)phenyl)-1,2,4-oxadiazol-5-yl)pyridin-2(1H)-one] here?
A: < 100 nM

Q: With `CN1CCN(C(=O)c2cccc(Cn3cc(-c4nc(-c5ccc(OC(F)(F)F)cc5)no4)ccc3=O)c2)CC1` [Example 115, 1-(3-(4-methylpiperazine-1-carbonyl)benzyl)-5-(3-(4-(trifluoromethoxy)phenyl)-1,2,4-oxadiazol-5-yl)pyridin-2(1H)-one] as the molecule, how does the IC50 read?
A: < 100 nM

Q: Which IC50 does the source give for `CN1CCN(c2cccc(Cn3cc(-c4nc(-c5ccc(OC(F)(F)F)cc5)no4)ccc3=O)c2)CC1` [Example 116, 1-(3-(4-methylpiperazin-1-yl)benzyl)-5-(3-(4-(trifluoromethoxy)phenyl)-1,2,4-oxadiazol-5-yl)pyridin-2(1H)-one] here?
A: < 100 nM

Q: For `COC(=O)c1cc(Cn2nc(-c3nc(-c4ccc(OC(F)(F)F)cc4)no3)ccc2=O)ccn1` [Example 117, methyl 4-((6-oxo-3-(3-(4-(trifluoromethoxy)phenyl)-1,2,4-oxadiazol-5-yl)pyridazin-1(6H)-yl)methyl)picolinate], which IC50 is on record?
A: 1000 to 10000 nM

Q: With `CS(=O)(=O)c1cccc(Cn2nc(-c3nc(-c4ccc(OC(F)(F)F)cc4)no3)ccc2=O)c1` [Example 118, 2-(3-(methylsulfonyl)benzyl)-6-(3-(4-(trifluoromethoxy)phenyl)-1,2,4-oxadiazol-5-yl)pyridazin-3(2H)-one] as the molecule, how does the IC50 read?
A: < 100 nM

Q: `NS(=O)(=O)c1cccc(Cn2nc(-c3nc(-c4ccc(OC(F)(F)F)cc4)no3)ccc2=O)c1` [Example 119] was tested. Which IC50 did it give?
A: < 100 nM

Same assay, conditions: 6 hrs hypoxia (1% O2), luminescence

Q: Which IC50 does the source give for `CN1CCN(c2cccc(Cn3cc(-c4ncc(-c5ccc(OC(F)(F)F)cc5)o4)ccc3=O)c2)CC1` [Example 91, 1-(3-(4-Methylpiperazin-1-yl)benzyl)-5-(5-(4-(trifluoromethoxy)phenyl)oxazol-2-yl)pyridin-2(1H)-one] here?
A: < 100 nM

Q: With `CN1CCN(c2cccc(Cn3cc(-c4nc(-c5ccc(OC(F)(F)F)cc5)co4)ccc3=O)c2)CC1` [Example 93, 1-(3-(4-Methylpiperazin-1-yl)benzyl)-5-(4-(4-(trifluoromethoxy)phenyl)oxazol-2-yl)pyridin-2(1H)-one] as the molecule, how does the IC50 read?
A: < 100 nM
